Reference: patent US20250281465A1, “MOLECULES THAT ENHANCE EXTRACELLULAR VESICLE RELEASE” (priority 2022, published 2025)

Key:
[1] = tested on: C57BL/6 mice; experiment: In vivo adjuvanticity with ovalbumin as model antigen; set-up: species or system mouse; conditions: OVA 20 μg + compound 200 nmol i.m. days 0 and 21, day 28
Protocol: FIGS. 1A-1D. Intracellular Ca^2+ influx screening of 84 HTS hit candidate compounds. (A) THP-1 cells were loaded with the ratiometric Ca^2+ indicator, Fura-2, and treated with lonomycin (ION, 1 μM), Thapsigargin (1 μM), or 84 hit candidate compounds (10 μM) for 25 minutes. Data are presented as the area under the curve (AUG) of OD340/380 ratios corresponding to the intracellular Ca^2+ kinetics. The baseline-subtracted AUG was calculated using GraphPad Prism (GraphPad Software, San Diego, CA). (B) Ca^2+ mobilization by compound #634. mBMDCs were loaded with the ratiometric Ca^2+ indicator, Fura-8, and treated with ION (1 μM), or #634 (2 and 10 μM) for 25 minutes. The dashed line indicates the timing of compounds added. […] OVA-specific IgGI and IgG2c levels in sera were determined by ELISA. **p<0.01, ***p<0.001, ns (not significant) by KruskalWallis tests with Dunn's post hoc test vs. Veh. […]
Eighty-four hit candidate compounds were also screened for in vivo adjuvant activities using C57BL/6 mice and model antigen ovalbumin (OVA). […] Sera were collected on day 28, and OVA-specific immunoglobulins IgG1 and IgG2c were determined by ELISA (FIG. 1D).
The selected 80 compounds were first evaluated for purity and identity by HPLC-MS and compounds which were less than 90% pure were purified by Prep-HPLC. These were then evaluated for vaccine adjuvant activity in mice using a model antigen, ovalbumin (OVA). […]

[2] = tested on: mBMDCs; experiment: Costimulatory molecule expression on mBMDCs (flow cytometry); format: cell-based, mouse; conditions: 634 10 μM, ION 1 μM, MPLA 1 μg/mL overnight, vs Veh
Protocol: FIGS. 26A-26D. Flow cytometric analysis for costimulatory molecules on mBMDCs. For costimulatory molecules on mBMDCs, mBMDCs (10^6 cells/mL) were incubated with 634 (10 μM), ION (1 μM), and MPLA (1 μg/mL) for 20-24 hours. 0.5% DMSO was used as a vehicle. After removing the supernatant, cells were washed with the stain buffer and incubated with anti-mouse CD16/32 antibody for blocking FcR. Cells were stained with an antibody cocktail with anti-CD86 (A), anti-CD80 (B), anti-MHC class II (C), and anti-CD40 (D) antibodies for 30 minutes at 4° C. Cells were then washed and stained with DAPI (4′,6-diamino-2phenylindole) for 10 minutes at room temperature to exclude dead cells (DAPI^high) from the analysis. Data were acquired using MACSQuant Analyzer 10 (Miltenyi Biotec, Germany) and analyzed with FlowJo (version 10.8.1).
mBMDCs (10^5 cells/200 μL/well) were treated with a test compound (10 μM) or Veh (0.5% DMSO) overnight and then the costimulatory molecule expression on mBMDCs was evaluated using flow cytometry. The cells were stained with antibodies for CD11c, CD80, CD83, CD86, CD40, and MHC class II. Dead cells (DAPI high) were excluded from the analysis. Percent positive population of CD80, CD83, CD86, CD40, or MHC class II in the gated CD11c population were analyzed.
Costimulatory Molecule Expression Analysis. mBMDCs (10^6 cells/mL) were incubated with 10 μM compound, 1 μM lonomycin and 1 μg/mL MPLA for 20 to 24 hours. 0.5% DMSO was used as vehicle. Cells were incubated with anti-mouse CD16/32 antibody for blocking FcR and stained with anti-CD11c, anti-CD40, […], anti-CD83, […], or anti-MHC class II antibodies for 30 minutes at 4° C. Cells were stained with 4′,6-diamino-2-phenylindole (DAPI) for 10 minutes at RT. Data were acquired using MACSQuant Analyzer 10 (Miltenyi Biotec, Germany) and analyzed with FlowJo (version 10.8.1, Becton Dickinson, Ashland, OR)).

| Compound | Anti-OVA IgG1 level in sera [1] | Anti-OVA IgG2c level in sera [1] | CD80 expression on mBMDCs [2] | CD86 expression on mBMDCs [2] |
| --- | --- | --- | --- | --- |
| CCOC(=O)c1c(NS(=O)(=O)c2cccc3c2N=S=N3)sc(C)c1C [#634, ethyl 2-(benzo[c][1,2,5]thiadiazole-4-sulfonamido)-4,5-dimethylthiophene-3-carboxylate] | appeared to be higher than the levels from animals immunized without adjuvant, although there were no significant differences | appeared to be higher than the levels from animals immunized without adjuvant, although there were no significant differences | – | – |
| CCOC(=O)c1c(NS(=O)(=O)c2cccc3nsnc23)sc(C)c1C [compound 634, Ethyl 2-(benzo[c][1,2,5]thiadiazole-4-sulfonamido)-4,5-dimethylthiophene-3-carboxylate] | – | – | increased CD86 and CD80 expression on mBMDCs | increased CD86 and CD80 expression on mBMDCs |
